Test results reported in patent US11478451B1, “Macrocyclic chlorine substituted indole derivatives” (Bayer Aktiengesellschaft, priority 2017, dated 2022).
Like-named read-outs stand apart in the source and are kept apart here.

How the values were obtained:
SUDHL10 cells [1] = test: Induction of caspase-3/7 activity (Caspase-Glo 3/7), SUDHL10; assay type: cell-based; conditions: EC50, median, SUDHL10, 3 h treatment
Procedure, shortened: (§1)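 Caspase-3/7 activation serves as the apoptosis read-out for MCL-1 inhibition. Cells are treated with compound for 3 h at 37 °C and assayed with Caspase-Glo 3/7; values are corrected by subtracting medium-only background.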

AMO-1 cells = test: Antiproliferation assay (CellTiter-Glo, 72 h), AMO-1; assay type: cell-based; conditions: IC50, median, AMO-1, 72 h, read-out: Antiproli AMO-1 [M] median
Procedure, shortened: (§2)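 Cells plated in treatment plates plus a day 0 reference plate; incubated 72 h at 37 °C; CellTiter-Glo added, 10 min incubation, luminescence read; day 0 plate read at time zero.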

SUDHL10 cells [2] = test: Induction of cytotoxicity (CellTiter-Glo, 5 h), SUDHL10; conditions: SUDHL10, 5 h
Description: (§3) Therefore, cytotoxicity assays were run in parallel in SUDHL5 and SUDHL10 cells.
(§4) The different cell lines were plated in culture medium (RPMI 1640 [GIBCO #22400-089] supplemented with 10% Fetal Bovine Serum) at a density of 3,300 cells in 30 μL/well in a sterile, solid black, flat bottom, polystyrene, TC-treated 384-well microplate (Corning #3571) using Multidrop Combi Reagent Dispenser. As a control, medium without cells was also added to the plate. Cells were incubated in a humidified incubator at 37° C. overnight. […] Rim wells were excluded. The cells were incubated for 5 h hours in a humidified incubator at 37° C. After this incubation, 30 μL of CellTiter-Glo® Luminescent Cell Viability reagent (Promega, G7573) was added to each well using the Multidrop Combi Reagent Dispenser, followed by 15 min incubation on a shaker at room temperature. Finally, luminescence was read at 0.1 ms, with a gain of 3000 using the PHERAstar FS microplate reader (BMG Labtech).

SUDHL5 cells [3] = test: Antiproliferation assay (CellTiter-Glo, 72 h), SUDHL5; assay type: cell-based; conditions: IC50, median, SUDHL5, 72 h, read-out: Antiproli SUDHL5 [M] (median)
Procedure, shortened: as §2

SUDHL5 cells [4] = test: Induction of caspase-3/7 activity (Caspase-Glo 3/7), SUDHL5; assay type: cell-based; conditions: EC50, median, SUDHL5, 3 h treatment
Procedure, shortened: as §1

HMC-1-8 cells = test: Antiproliferation assay (CellTiter-Glo, 72 h), HMC-1-8; assay type: cell-based; conditions: IC50, median, HMC-1-8, 72 h, read-out: Antiproli HMC-1-8 [M] median
Procedure, shortened: as §2

SUDHL5 cells [5] = test: Induction of cytotoxicity (CellTiter-Glo, 5 h), SUDHL5; conditions: SUDHL5, 5 h
Description: as §3, §4

[6] = Homo sapiens, SU-DHL10, 5 h, read-out: Cytotox SUDHL10 [M] (median), IC50, median
[7] = Homo sapiens, SU-DHL-5, 5 h, read-out: Cytotox SUDHL5 [M] (median), IC50, median

EC50 (SUDHL10 cells [1]; Homo sapiens, SU-DHL10, 3 h)	IC50 (SUDHL5 cells [3]; Homo sapiens, SU-DHL-5, 72 h)	EC50 (SUDHL5 cells [4]; Homo sapiens, SU-DHL-5, 3 h)	SMILES	IC50 (AMO-1 cells; Homo sapiens, AMO1, 72 h)	IC50 (SUDHL10 cells [2]; [6])	IC50 (HMC-1-8 cells; 72 h)	IC50 (SUDHL5 cells [5]; [7])	further results
1400 nM	7.8e-07 M	160 nM	CCc1c2c(nn1C)CCCN(C)CCn1c(C(=O)O)c(CCCOc3cccc4cc(F)ccc34)c3ccc(Cl)c-2c31 (racemic) [Example 115, (rac)-4-chloro-3-ethyl-7-{3-[(6-fluoronaphthalen-1-yl)oxy]propyl}-2,12-dimethyl-10,11,12,13,14,15-hexahydro-2H-pyrazolo[3′,4′:8,9][1,4]diazacycloundecino[10,11,1-hi]indole-8-carboxylic acid]	9.1e-07 M	1.4e-06 M	8e-06 M	4.4e-07 M	
			CCc1c2c(nn1C)CCCN(CC(F)F)CCn1c(C(=O)O)c(CCCOc3cccc4cc(F)ccc34)c3ccc(Cl)c-2c31 (racemic) [Example 118, (rac)-4-chloro-12-(2,2-difluoroethyl)-3-ethyl-7-{3-[(6-fluoro-1-naphthyl)oxy]propyl}-2-methyl-10,11,12,13,14,15-hexahydro-2H-pyrazolo[3′,4′:8,9][1,4]diazacycloundecino[10,11,1-hi]indole-8-carboxylic acid]	5.1e-07 M				EC50 (SUDHL10 cells [1]): 510 nM; IC50 (SUDHL10 cells [2]; read-out: Cytotox SUDHL10 [M] (median), IC50, median): 6.4e-07 M; IC50 (SUDHL5 cells [3]): 5.5e-07 M; EC50 (SUDHL5 cells [4]): 330 nM; IC50 (HMC-1-8 cells): 2.5e-06 M; IC50 (SUDHL5 cells [5]; read-out: Cytotox SUDHL5 [M] (median), IC50, median): 5.5e-07 M
750 nM	6.8e-07 M	920 nM	CCc1c2c(nn1C)CCCN(CCCCO)CCn1c(C(=O)O)c(CCCOc3cccc4cc(F)ccc34)c3ccc(Cl)c-2c31 (racemic) [Example 122, (rac)-4-chloro-3-ethyl-7-{3-[(6-fluoro-1-naphthyl)oxy]propyl}-12-(4-hydroxybutyl)-2-methyl-10,11,12,13,14,15-hexahydro-2H-pyrazolo[3′,4′:8,9][1,4]diazacycloundecino[10,11,1-hi]indole-8-carboxylic acid]	5.1e-07 M	1.1e-06 M	6.6e-06 M	1.1e-06 M	
1100 nM	2.2e-06 M	470 nM	CCc1c2c(nn1C)CCCN(CC(F)(F)C(F)F)CCn1c(C(=O)O)c(CCCOc3cccc4cc(F)ccc34)c3ccc(Cl)c-2c31 (racemic) [Example 123, (rac)-4-chloro-3-ethyl-7-{3-[(6-fluoro-1-naphthyl)oxy]propyl}-2-methyl-12-(2,2,3,3-tetrafluoropropyl)-10,11,12,13,14,15-hexahydro-2H-pyrazolo[3′,4′:8,9][1,4]diazacycloundecino[10,11,1-hi]indole-8-carboxylic acid]	7.7e-07 M	1.2e-06 M	3.1e-06 M	6.6e-07 M	
720 nM	8.8e-07 M	420 nM	CCc1c2c(nn1C)CN(C)CC(F)(F)CCn1c(C(=O)O)c(CCCOc3cccc4cc(F)ccc34)c3ccc(Cl)c-2c31 (racemic) [Example 126, (rac)-4-Chloro-3-ethyl-12,12-difluoro-7-{3-[(6-fluoro-1-naphthyl)oxy]propyl}-2,14-dimethyl-10,11,12,13,14,15-hexahydro-2H-pyrazolo[3′,4′:8,9][1,6]diazacycloundecino[10,11,1-hi]indol-14-ium-8-carboxylate]	3.7e-07 M	8.7e-07 M	2.2e-06 M	5e-07 M	
740 nM	4.5e-07 M	300 nM	CCc1c2c(nn1C)CN(C)CCC(F)(F)Cn1c(C(=O)O)c(CCCOc3cccc4cc(F)ccc34)c3ccc(Cl)c-2c31 (racemic) [Example 129, (rac)-4-chloro-3-ethyl-11,11-difluoro-7-{3-[(6-fluoronaphthalen-1-yl)oxy]propyl}-2,14-dimethyl-10,11,12,13,14,15-hexahydro-2H-pyrazolo[3′,4′:8,9][1,6]diazacycloundecino[10,11,1-hi]indole-8-carboxylic acid]	8.3e-07 M	8.9e-07 M	5.2e-06 M	3.3e-07 M	
			Cc1c2c(nn1C)COCC1CC1Cn1c(C(=O)O)c(CCCOc3cccc4ccccc34)c3ccc(Cl)c-2c31 (single isomer, unassigned) [Example 83, 3-chloro-4,5-dimethyl-14-{3-[(naphthalen-1-yl)oxy]propyl}-5,7,9a,10,10a,11-hexahydro-9H-cyclopropa[3,4]pyrazolo[4′,3′:9,10][1,6]oxazacycloundecino[8,7,6-hi]indole-13-carboxylic acid]			7.4e-06 M		EC50 (SUDHL10 cells [1]; listed as 083): 410 nM; IC50 (AMO-1 cells; listed as 083): 3.8e-07 M; IC50 (SUDHL10 cells [2]; read-out: Cytotox SUDHL10 [M] (median), IC50, median, listed as 083): 5.9e-07 M; IC50 (SUDHL5 cells [3]; listed as 083): 5.2e-07 M; EC50 (SUDHL5 cells [4]; listed as 083): 220 nM; IC50 (SUDHL5 cells [5]; read-out: Cytotox SUDHL5 [M] (median), IC50, median, listed as 083): 5.8e-07 M
320 nM			CCc1c2c(nn1C)COCC(F)(F)CCn1c(C(=O)O)c(CCCOc3cccc4cc(F)ccc34)c3ccc(Cl)c-2c31 (single isomer, unassigned) [Example 85, (−)-4-chloro-3-ethyl-12,12-difluoro-7-{3-[(6-fluoronaphthalen-1-yl)oxy]propyl}-2-methyl-2,10,11,12,13,15-hexahydropyrazolo[4′,3′:9,10][1,6]oxazacycloundecino[8,7,6-hi]indole-8-carboxylic acid]		9.8e-07 M	3.3e-06 M		IC50 (AMO-1 cells; listed as 085): 4.9e-07 M; IC50 (SUDHL5 cells [3]; listed as 085): 3.6e-07 M; EC50 (SUDHL5 cells [4]; listed as 085): 180 nM; IC50 (SUDHL5 cells [5]; read-out: Cytotox SUDHL5 [M] (median), IC50, median, listed as 085): 3e-07 M
590 nM	8.2e-07 M	280 nM	Cc1c2c(nn1C)COCC(F)(F)CCn1c(C(=O)O)c(CCCOc3cccc4cc(F)ccc34)c3ccc(Cl)c-2c31 (single isomer, unassigned) [Example 92, 4-chloro-12,12-difluoro-7-{3-[(6-fluoronaphthalen-1-yl)oxy]propyl}-2,3-dimethyl-2,10,11,12,13,15-hexahydropyrazolo[4′,3′:9,10][1,6]oxazacycloundecino[8,7,6-hi]indole-8-carboxylic acid]	5.4e-07 M	8.1e-07 M	6.8e-06 M	3.4e-07 M	
			CCc1c2c(nn1C)COCCC(F)(F)Cn1c(C(=O)O)c(CCCOc3cccc4cc(F)ccc34)c3ccc(Cl)c-2c31 (single isomer, unassigned) [Example 97, (−)-4-chloro-3-ethyl-11,11-difluoro-7-{3-[(6-fluoronaphthalen-1-yl)oxy]propyl}-2-methyl-2,10,11,12,13,15-hexahydropyrazolo[4′,3′:9,10][1,6]oxazacycloundecino[8,7,6-hi]indole-8-carboxylic acid]					EC50 (SUDHL10 cells [1]; listed as 097): 450 nM; IC50 (AMO-1 cells; listed as 097): 2.2e-07 M; IC50 (SUDHL10 cells [2]; read-out: Cytotox SUDHL10 [M] (median), IC50, median, listed as 097): 4.2e-07 M; IC50 (SUDHL5 cells [3]; listed as 097): 5.5e-07 M; EC50 (SUDHL5 cells [4]; listed as 097): 320 nM; IC50 (HMC-1-8 cells; listed as 097): 2.2e-06 M; IC50 (SUDHL5 cells [5]; read-out: Cytotox SUDHL5 [M] (median), IC50, median, listed as 097): 4.4e-07 M

SMILES	EC50 (SUDHL10 cells [1]; Homo sapiens, SU-DHL10, 3 h)	IC50 (SUDHL5 cells [3]; Homo sapiens, SU-DHL-5, 72 h)	EC50 (SUDHL5 cells [4]; Homo sapiens, SU-DHL-5, 3 h)	IC50 (AMO-1 cells; Homo sapiens, AMO1, 72 h)	IC50 (SUDHL10 cells [2]; [6])	IC50 (HMC-1-8 cells; 72 h)	IC50 (SUDHL5 cells [5]; [7])	further results
CCc1c2c(nn1C)CCCN(CCCCOC(C)=O)CCn1c(C(=O)O)c(CCCOc3cccc4cc(F)ccc34)c3ccc(Cl)c-2c31 (racemic) [Example 121, (rac)-12-(4-acetoxybutyl)-4-chloro-3-ethyl-7-{3-[(6-fluoro-1-naphthyl)oxy]propyl}-2-methyl-10,11,12,13,14,15-hexahydro-2H-pyrazolo[3′,4′:8,9][1,4]diazacycloundecino[10,11,1-hi]indole-8-carboxylic acid]	1700 nM	9e-07 M	1200 nM	1.3e-06 M	1.9e-06 M	9.9e-06 M	1.3e-06 M	
